Values after ≈ are worked out from the molar mass of the structure shown.
Legend:
[1] = tested on: human non-small lung cancer cell line A549; test: MTT viability assay; type: cell-based; conditions: 120 h
[2] = tested on: M. tuberculosis H37Rv strain; test: Tuberculostatic activity, test-tube successive dilution in Youmans' medium; type: cell-based; conditions: Mycobacterium tuberculosis
[3] = tested on: M. tuberculosis wild-type strain sp. 192 fully sensitive; test: as above; type: cell-based; conditions: Mycobacterium tuberculosis
H37Rv = test: Widened tuberculostatic tests; type: cell-based, Mycobacterium
An5 = test: Widened tuberculostatic tests; type: cell-based, Mycobacterium
Wells = test: Widened tuberculostatic tests; type: cell-based, Mycobacterium
Kirchberg = test: Widened tuberculostatic tests; type: cell-based, Mycobacterium
Kansasii = test: Widened tuberculostatic tests; type: cell-based, Mycobacterium
Scrofulaceum = test: Widened tuberculostatic tests; type: cell-based, Mycobacterium
Intracellularum = test: Widened tuberculostatic tests; type: cell-based, Mycobacterium
Fortuitum = test: Widened tuberculostatic tests; type: cell-based, Mycobacterium
Smegmatis = test: Widened tuberculostatic tests; type: cell-based, Mycobacterium
Phlei = test: Widened tuberculostatic tests; type: cell-based, Mycobacterium
[4] = tested on: A549 and HCT116 cell lines; test: MTT cytotoxicity, summary statements without cell line; type: cell-based; conditions: Homo sapiens, read-out: IC 50 (ca., cell line not stated)

SMILES | IC50 [1] [µM] | MIC [2] [µg/mL] | MIC [3] [µg/mL] | MIC (H37Rv) [μg cm^−3] | MIC (An5) [μg cm^−3] | MIC (Wells) [μg cm^−3] | MIC (Kirchberg) [μg cm^−3] | MIC (Kansasii) [μg cm^−3] | MIC (Scrofulaceum) [μg cm^−3] | MIC (Intracellularum) [μg cm^−3] | MIC (Fortuitum) [μg cm^−3] | MIC (Smegmatis) [μg cm^−3] | MIC (Phlei) [μg cm^−3] | IC50 [4] [µM]
N.N.[Cl][Pt][Cl] [Cis-Pt, Cisplatin] | 0.63 ± 0.018 | – | – | – | – | – | – | – | – | – | – | – | – | –
CSC(=NNC(=O)c1ccccc1Cl)SC [Compound 2, Dimethyl 2-chlorobenzoylcarbonohydrazonodithioate] | – | 25 (≈ 91 µM) | 25 (≈ 91 µM) | – | – | – | – | – | – | – | – | – | – | –
CSC(=NNC(=O)c1ccc(Cl)cc1)SC [Compound 3, Dimethyl 4-chlorobenzoylcarbonohydrazonodithioate] | – | 6.2 (≈ 22.6 µM) | 12.5 (≈ 45.5 µM) | 12.5 | 12.5 | 12.5 | 25 | 25 | 100 | 50 | 100 | 100 | 100 | –
CSC(=NNC(=O)c1ccc(Cl)cc1Cl)SC [Compound 4, Dimethyl 2,4-dichlorobenzoylcarbonohydrazonodithioate] | – | 6.2 (≈ 20 µM) | 6.2 (≈ 20 µM) | 6.2 | 6.2 | 12.5 | – | 25 | 25 | – | – | – | – | –
CSC(=NNC(=O)c1ccc(Cl)c(Cl)c1)SC [Compound 5, Dimethyl 3,4-dichlorobenzoylcarbonohydrazonodithioate] | – | 6.2 (≈ 20 µM) | 3.1 (≈ 10 µM) | 6.2 | 12.5 | 6.2 | 12.5 | 6.2 | 25 | 100 | 100 | 100 | 100 | ~30
CSC(=NNC(=O)c1ccccc1[N+](=O)[O-])SC [Compound 6, Dimethyl 2-nitrobenzoylcarbonohydrazonodithioate] | – | 25 (≈ 87.6 µM) | 50 (≈ 175 µM) | – | – | – | – | – | – | – | – | – | – | –
CSC(=NNC(=O)c1ccccc1O)SC [Compound 8, Dimethyl 2-hydroxybenzoylcarbonohydrazonodithioate] | – | – | 25 (≈ 97.5 µM) | – | – | – | – | – | – | – | – | – | – | –
CSC(=NNC(=O)c1cccc(O)c1)SC [Compound 9, Dimethyl 3-hydroxybenzoylcarbonohydrazonodithioate] | – | 6.2 (≈ 24.2 µM) | 6.2 (≈ 24.2 µM) | 6.2 | 6.2 | 6.2 | – | – | 25 | 25 | 25 | – | – | –
CSC(=NNC(=O)c1ccc(O)cc1)SC [Compound 10, Dimethyl 4-hydroxybenzoylcarbonohydrazonodithioate] | – | 3.1 (≈ 12.1 µM) | 6.2 (≈ 24.2 µM) | 6.2 | 6.2 | 12.5 | 50 | 25 | 50 | 100 | 100 | 100 | 100 | ~100
COc1ccc(C(=O)NN=C(SC)SC)cc1 [Compound 11, Dimethyl 4-methoxybenzoylcarbonohydrazonodithioate] | – | 25 (≈ 92.5 µM) | 25 (≈ 92.5 µM) | – | – | – | – | – | – | – | – | – | – | –
COc1cc(C(=O)NN=C(SC)SC)cc(OC)c1OC [Compound 12, Dimethyl 3,4,5-trimethoxybenzoylcarbonohydrazonodithioate] | – | 25 (≈ 75.7 µM) | 50 (≈ 151 µM) | – | – | – | – | – | – | – | – | – | – | –
COc1ccc(CC(=O)NN=C(SC)SC)cc1OC [Compound 13, Dimethyl 2-(3,4-dimethoxyphenyl)acetylcarbonohydrazonodithioate] | – | 25 (≈ 79.5 µM) | 50 (≈ 159 µM) | – | – | – | – | – | – | – | – | – | – | –
COc1cccc2c1C(=O)c1c(O)c3c(c(O)c1C2=O)C[C@@](O)(C(=O)CO)C[C@@H]3O[C@H]1C[C@H](N)[C@H](O)[C@H](C)O1 [Dox, doxotubicin] | 0.008 ± 0.0011 | – | – | – | – | – | – | – | – | – | – | – | – | –

— paper PMC4494766 (Monatshefte Fur Chemie, 2011)
